Results published in patent publication US20250057791A1, “PROTECTION AGAINST ARTHROPOD PARASITES WITH PURINERGIC RECEPTOR (OPR) ANTAGONISTS” (priority 2021, published 2025).
Several values for one entry are separate records, joined by “and”; a condition that tells them apart may be missing. Equal values may be shown once.

How the values were obtained:
[1] = test system: A. gambiae labellum ATP-sensitive receptor; assay: Effects of metal ions on electrophysiological responses to ATP; assay type: cell-based, Anopheles gambiae
Procedure: (§1) The tip recording method was used to record action potentials (spikes) from sensory cells in sensilla on A. gambiae labellum lobes.
Sensilla were exposed to test compounds and PR antagonists for ca. 2-4 s and spikes were counted in the first 2 s of recordings. Up to 4 test compounds were tested on a sensillum to evaluate potential agonists, each presented at 200 pM. To study responses as a function of dose for agonists ATP, adenosine, AMP, AMP-CPP and ATP+adenosine, up to 7 recordings were made at increasing doses of agonist from the same sensillum. […]
Pairwise comparisons of A. gambiae electrophysiological (EP) responses to ATP and adenosine alone and combined with a given dose of PR antagonist, EP responses to ATP alone and combined with a given dose of a metal modulator, and EP responses to ATP prior to and after exposure of a sensillum to a given dose of a PR antagonist were made with a one-tailed Wilcoxon signed-rank test for data showing a non-normal distribution, with a paired Student's t-test for normally distributed data showing homogeneous variance and with a Welch's t-test for normally distributed data showing non-homogeneous variance. […] Percent feeding inhibition induced by PR antagonists in A. stephensi was calculated using Abbott's formula.

[2] = test system: A. gambiae labellum sensilla (purine-sensitive cell); assay: Tip recording of action potentials from A. gambiae labellum sensilla in response to agonists; assay type: cell-based, Anopheles gambiae
Procedure: as §1
Sensilla were exposed to test compounds and PR antagonists for ca. 2-4 s and spikes were counted in the first 2 s of recordings. Up to 4 test compounds were tested on a sensillum to evaluate potential agonists, each presented at 200 pM. To study responses as a function of dose for agonists ATP, adenosine, AMP, AMP-CPP and ATP+adenosine, up to 7 recordings were made at increasing doses of agonist from the same sensillum. Unless otherwise stated, recordings were made throughout from 4 to 16 sensilla from individual 4-6-day-old females per dose of agonist, antagonist and metal ion modulator. For example, a response curve established over 6 doses of an antagonist using 8 sensilla per dose involved recording from a sensillum of 48 separate mosquitoes. A given dose of a PR antagonist or metal ion modulator was only presented once to a sensillum. Two-second recordings were imported as ASCII files into DataView software for analysis of spike amplitude. Differences in spike amplitude generated by stimulation of one 8v sensillum/female with 1 mM sucrose (n=294 spikes from 6 females) 200 pM adenosine (n=207 spikes from 7 females) and 200 pM ATP (n=192 spikes from 7 females) were compared by measuring the spike amplitude in mV between the highest point of depolarisation and the lowest point of hyperpolarisation.
Spike counts elicited by 200 pM doses of nucleotides, nucleosides, purines, pyrimidines and water were log(x+1.25)-transformed (optimal constant numerically established using a maximum likelihood procedure) and analysed using a linear mixed effects model (function ‘lme’ in “nlme” R package) with mosquito number as random effect. To model inhomogeneous variance in residuals (near normal distribution, P=0.045, Shapiro-Wilk test, W=0.98604), the variance function ‘varldent’ in the “nlme” package that allows for different variance per treatment was used. Statistical differences were identified between treatments using post-hoc-Tukey test with contrasts adjusted by Holm's family wise error compensation (FWEC). Spike counts elicited by ATP, AMP, adenosine and their binary mixtures were analysed using a generalised linear model (LM) of log (x+10) transformed data and differences were identified using post-hoc-Tukey test with Holm's FWEC.
Log transformed spike amplitudes generated in response to ATP, adenosine and sucrose were compared using linear mixed effects models using the ‘lme’ function of the “nlme” R package, with spike amplitude as the dependent variable, treatment as the fixed factor and mosquito number within treatment as random effect. Residuals were normally distributed (Shapiro-Wilk test P>0.0563) and their variances homogeneous (Bartlett test P>0.9799); P-values were corrected using Holm's FWEC.
Dose-response models fitted to mosquito data were generated using the ‘drm’ command in the “drc” R package (version 2.5-12). Best fitting models (goodness of fit) and effects of dose of a compound were assessed using, respectively, ‘modelFit’ and ‘noEffect’ functions in the same R package. A 3-parameter logistic model (L3) was fitted to spike-counts recorded to increasing doses of adenosine, AMP, ATP and AMP-CPP. Spike numbers recorded in response to 200 pM ATP with increasing doses of PR antagonists added were analysed using a 4-parameter log-logistic model (LL.4) for A-317491 and spinorphin, using a 4-parameter Weibull model (W1.4) for PPADS, RB-2 and TMP, and using a 3-parameter log-logistic model (LL.3) for suramin. An L3 model was fitted to proportions of females feeding on increasing doses of ATP. Feeding rates on 20 μM ATP with increasing doses of a PR antagonist added were analysed using a 4-parameter log-logistic model (LL.4) with the median of the positive control (20 μM ATP) fixed as the upper asymptote. […]

[3] = spike frequency as a function of dose

Nc1ncnc2c1ncn2[C@@H]1O[C@H](COP(=O)(O)OP(=O)(O)OP(=O)(O)O)[C@@H](O)[C@H]1O [ATP, Adenosine 5′-triphosphate]
Mean no. of spikes per 2 s (±s.e.m.) ([1]; 100 pM ATP alone): 3 ± 1.67 spikes per 2 s
Mean no. of spikes per 2 s (±s.e.m.) ([1]; 200 pM ATP alone): 24.8 ± 4.84 spikes per 2 s and 28.12 ± 3.5 spikes per 2 s
spike frequency ([2]; 50 pM alone, mixture 50 pM of each agonist): 2.5±0.7 /2s
EC50 ([2]; Anopheles gambiae, spike frequency as a function of dose, read-out: ED50 (the source's name)): ~0.12 nM
spikes recorded at the asymptote ([2]; at 250 pM): approximately 30 spikes/2 s
Mean spike frequency per 2 s (±SEM) ([2]; each compound at 200 pM alone and in binary mixtures, T1 labellum sensilla): 33.04 per 2 s
detection threshold ([2]; labellum sensory cell): < 100 pM
ED95 [2, 3]: ~0.2 nM
dose at which the unsurmountable asymptote is reached [2, 3]: 250 pM
